Measured values taken from paper PMC3686795, “CD38 Structure-Based Inhibitor Design Using the N1-Cyclic Inosine 5′-Diphosphate Ribose Template” (PLoS ONE, 2013).
Read-outs that look alike come from different tables or passages of the source.

Key:
[1] = target: T1, wild-type CD38 (cADPR hydrolase activity) (Homo sapiens, UniProt P28907, N100D/N164A/N209D/N219D); assay: Enzymatic assay for cADPR hydrolysis (inhibition of CD38-catalyzed cADPR hydrolysis, fluorimetric cycling assay); assay type: biochemical; settings: for Fold improvement of IC50 over N1-cIDPR (cADPR hydrolysis): relative to N1-cIDPR, IC50 276 µM
T1 construct: Crystal structure of human CD38 extracellular domain; made in house
T1 sequence (P28907 45-300 N100D/N164A/N209D/N219D limits assumed): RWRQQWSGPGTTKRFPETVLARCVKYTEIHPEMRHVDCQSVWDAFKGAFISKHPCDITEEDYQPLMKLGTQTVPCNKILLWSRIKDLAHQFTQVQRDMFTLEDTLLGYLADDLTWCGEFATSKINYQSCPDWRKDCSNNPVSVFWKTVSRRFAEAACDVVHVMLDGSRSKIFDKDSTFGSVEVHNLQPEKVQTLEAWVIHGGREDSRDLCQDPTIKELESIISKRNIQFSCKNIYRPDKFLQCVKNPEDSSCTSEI
Protocol: The reaction was stopped by the addition of 150 mM HCl. The precipitated protein was filtered, and the pH was neutralized with Tris base. After diluting the mixture 20-fold, the concentration of the unhydrolyzed cADPR present in the diluted reaction mixture was assayed by the fluorimetric cycling assay as previously described.

[2] = target: T2, CD38 NAD+ glycohydrolase activity (Homo sapiens, UniProt P28907, N100D/N164A/N209D/N219D); assay: Enzymatic assay for NAD+ hydrolase (NADase) activity of CD38; assay type: biochemical; settings: 1 µM NAD+, 0.1 µg/mL CD38, 1 min, 20–24°C, pH 4.5; Figure S1; read-out: IC50, inhibition of NADase activity of CD38
T2 construct: Crystal structure of human CD38 extracellular domain; made in house
T2 sequence (P28907 45-300 N100D/N164A/N209D/N219D limits assumed): T1 sequence (P28907 45-300 N100D/N164A/N209D/N219D limits assumed)
Protocol: The reaction was stopped by addition of 150 mM HCl, filtered and assayed for NAD^+ by the fluorimetric cycling assay as previously described.

CD38 = target: T3, CD38 (Homo sapiens, UniProt P28907, N100D/N164A/N209D/N219D); assay: Incubation with CD38, nucleotide profile by HPLC (stability towards cleavage); assay type: in vitro ADME; settings: HPLC after 18 h; data not shown
T3 construct: Crystal structure of human CD38 extracellular domain; made in house
T3 sequence (P28907 45-300 N100D/N164A/N209D/N219D limits assumed): T1 sequence (P28907 45-300 N100D/N164A/N209D/N219D limits assumed)

Jurkat T-cells = tested on: Jurkat T-cells; set-up: method as in PMID 15932322; settings: cited from earlier work
[3] = tested on: sea urchin egg homogenate; set-up: method as in PMID 11535079; settings: cited from earlier work
[4] = 1 µM cADPR, 2 µg/mL CD38, pH 4.5, inhibitor tested 0–1 mM, read-out: IC50, inhibition of cADPR hydrolysis by CD38
[5] = extrapolated beyond the tested range 0–1 mM, read-out: IC50, inhibition of cADPR hydrolysis, estimated by projection
[6] = 1 µM cADPR, 2 µg/mL CD38, 10 min, 20–24°C, pH 4.5, read-out: IC50, inhibition of cADPR hydrolysis by CD38

In the case of `NCCCCNc1nc2c(=O)n3cnc2n1[C@@H]1O[C@H](COP(=O)(O)OP(=O)(O)OC[C@H]2O[C@@H]3[C@H](O)[C@@H]2O)[C@@H](O)[C@H]1O` [8-(4-Aminobutane)amino N1-cIDPR, 8-(4-aminobutane)amino N1-cIDPR], the IC50 [1, 4] is reported as greater than 1000 µM and the IC50 [1, 5] is reported as roughly 2000 µM.
`Nc1nc2c(=O)n([C@@H]3O[C@H](COP(=O)(O)O)[C@@H](O)[C@H]3O)cnc2[nH]1` [8-Amino N1-IMP, 8-amino N1-IMP] gave an IC50 [1, 6] of 7.6 µM.
With `Nc1nc2c(=O)n3cnc2n1[C@@H]1O[C@H](COP(=O)(O)OP(=O)(O)OC[C@H]2O[C@@H]3[C@H](O)[C@@H]2O)[C@@H](O)[C@H]1O` [8-Amino N1-cIDPR, 8-amino N1-cIDPR] the IC50 [1, 6] was 56 µM, the “Fold improvement of IC50 over N1-cIDPR (cADPR hydrolysis)” value [1] was “over 5 fold” and the IC50 [2] was 21 µM.
`O=c1c2nc(Br)[nH]c2ncn1[C@@H]1O[C@H](COP(=O)(O)O)[C@@H](O)[C@H]1O` [8-Bromo N1-IMP] showed an IC50 [1, 6] of 201 µM.
For `O=c1c2nc(Br)n3c2ncn1[C@@H]1O[C@H](COP(=O)(O)OP(=O)(O)OC[C@H]2O[C@@H]3[C@H](O)[C@@H]2O)[C@@H](O)[C@H]1O` [8-Bromo N1-cIDPR, 8-bromo N1-cIDPR], the “Change in nucleotide profile after incubation with CD38” value (CD38) was “no change in the nucleotide profile”.
Work on `O=c1c2nc(I)[nH]c2ncn1[C@@H]1O[C@H](COP(=O)(O)O)[C@@H](O)[C@H]1O` [8-Iodo N1-IMP, 8-iodo N1-IMP] yielded an IC50 [1, 4] greater than 1000 µM and an IC50 [1, 5] of roughly 1240 µM.
In the case of `O=c1c2nc[nH]c2ncn1[C@@H]1O[C@H](COP(=O)(O)O)[C@@H](O)[C@H]1O` [N1-IMP, N1-inosine 5′-monophosphate], the IC50 [1, 6] is reported as 14 µM and the “Fold improvement of IC50 over N1-cIDPR (cADPR hydrolysis)” value [1] is reported as roughly 20 fold.
In the case of `O=c1c2ncn3c2ncn1[C@@H]1O[C@H](COP(=O)(O)OP(=O)(O)OC[C@H]2O[C@@H]3[C@H](O)[C@@H]2O)[C@@H](O)[C@H]1O` [N1-cIDPR, cyclic inosine 5′-diphosphoribose], the “Ca2+ release compared with cADPR” value (Jurkat T-cells) is listed as “almost indistinguishable from Ca^2+ release induced by cADPR”.
For `N=c1c2ncn3c2ncn1[C@@H]1C[C@H](COP(=O)(O)OP(=O)(O)OC[C@H]2O[C@@H]3[C@H](O)[C@@H]2O)[C@@H](O)[C@H]1O` [cADPcR, cyclic ADP-carbocyclic ribose, reference compound], the IC50 [1, 6] is given as 129 µM and the “Ca2+ release activity” value [3] is given as “potent Ca^2+ release agent”.
